In US20220242846A1, “ISOINDOLINONE COMPOUNDS” (Monte Rosa Therapeutics AG, priority 2019, published 2022):

What follows are compounds tested against GSPT1 (Homo sapiens, UniProt P15170+Q96SW2) (assay: Immunofluorescence assay for GSPT1 degradation in CAL-51 cells). Details: GSPT1 degradation, compound treatment 6 hours, read-out: DC50.
Type: cell-based
Design: CAL-51 cells were purchased from DSMZ (cat. Number ACC302); endogenous in cells; host or cells: CAL-51 (DSMZ ACC302)
Method in brief: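 CAL-51 cells on fibronectin-coated plates treated 6 h with compound (30 μM to 0.1 nM); fixed, stained with anti-GSPT1/Alexa-488, phalloidin and DAPI, imaged by high-content microscopy. Mean GSPT1 intensity per cell normalized to controls; DC50 by non-linear regression.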

Sequence of GSPT1 (P15170 whole entry): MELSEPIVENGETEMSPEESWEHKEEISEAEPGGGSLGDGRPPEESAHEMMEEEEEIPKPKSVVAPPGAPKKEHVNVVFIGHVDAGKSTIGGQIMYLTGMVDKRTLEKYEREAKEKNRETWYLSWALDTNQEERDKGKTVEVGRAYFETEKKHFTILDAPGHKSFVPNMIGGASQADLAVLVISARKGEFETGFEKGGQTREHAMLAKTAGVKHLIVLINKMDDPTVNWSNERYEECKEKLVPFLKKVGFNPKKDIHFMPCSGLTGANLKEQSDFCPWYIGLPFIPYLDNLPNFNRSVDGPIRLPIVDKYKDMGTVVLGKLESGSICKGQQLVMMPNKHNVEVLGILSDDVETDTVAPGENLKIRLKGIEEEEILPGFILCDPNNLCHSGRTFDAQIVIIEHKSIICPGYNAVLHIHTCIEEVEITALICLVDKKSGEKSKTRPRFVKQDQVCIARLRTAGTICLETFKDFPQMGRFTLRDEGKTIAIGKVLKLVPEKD
Sequence of GSPT1 (Q96SW2 whole entry): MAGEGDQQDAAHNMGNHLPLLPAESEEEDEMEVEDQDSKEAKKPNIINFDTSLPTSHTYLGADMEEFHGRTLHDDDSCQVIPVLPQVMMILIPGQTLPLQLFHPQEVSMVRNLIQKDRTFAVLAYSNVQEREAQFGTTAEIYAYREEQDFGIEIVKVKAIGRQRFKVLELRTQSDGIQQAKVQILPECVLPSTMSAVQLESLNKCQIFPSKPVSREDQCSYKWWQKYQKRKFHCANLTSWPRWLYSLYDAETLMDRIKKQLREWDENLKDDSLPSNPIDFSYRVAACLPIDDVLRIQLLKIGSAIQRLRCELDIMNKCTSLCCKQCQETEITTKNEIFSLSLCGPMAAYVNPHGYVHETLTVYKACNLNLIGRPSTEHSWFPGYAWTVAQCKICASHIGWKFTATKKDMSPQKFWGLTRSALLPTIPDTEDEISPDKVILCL
Sequence of GSPT1 (Q16531 2-1140 partner limits assumed): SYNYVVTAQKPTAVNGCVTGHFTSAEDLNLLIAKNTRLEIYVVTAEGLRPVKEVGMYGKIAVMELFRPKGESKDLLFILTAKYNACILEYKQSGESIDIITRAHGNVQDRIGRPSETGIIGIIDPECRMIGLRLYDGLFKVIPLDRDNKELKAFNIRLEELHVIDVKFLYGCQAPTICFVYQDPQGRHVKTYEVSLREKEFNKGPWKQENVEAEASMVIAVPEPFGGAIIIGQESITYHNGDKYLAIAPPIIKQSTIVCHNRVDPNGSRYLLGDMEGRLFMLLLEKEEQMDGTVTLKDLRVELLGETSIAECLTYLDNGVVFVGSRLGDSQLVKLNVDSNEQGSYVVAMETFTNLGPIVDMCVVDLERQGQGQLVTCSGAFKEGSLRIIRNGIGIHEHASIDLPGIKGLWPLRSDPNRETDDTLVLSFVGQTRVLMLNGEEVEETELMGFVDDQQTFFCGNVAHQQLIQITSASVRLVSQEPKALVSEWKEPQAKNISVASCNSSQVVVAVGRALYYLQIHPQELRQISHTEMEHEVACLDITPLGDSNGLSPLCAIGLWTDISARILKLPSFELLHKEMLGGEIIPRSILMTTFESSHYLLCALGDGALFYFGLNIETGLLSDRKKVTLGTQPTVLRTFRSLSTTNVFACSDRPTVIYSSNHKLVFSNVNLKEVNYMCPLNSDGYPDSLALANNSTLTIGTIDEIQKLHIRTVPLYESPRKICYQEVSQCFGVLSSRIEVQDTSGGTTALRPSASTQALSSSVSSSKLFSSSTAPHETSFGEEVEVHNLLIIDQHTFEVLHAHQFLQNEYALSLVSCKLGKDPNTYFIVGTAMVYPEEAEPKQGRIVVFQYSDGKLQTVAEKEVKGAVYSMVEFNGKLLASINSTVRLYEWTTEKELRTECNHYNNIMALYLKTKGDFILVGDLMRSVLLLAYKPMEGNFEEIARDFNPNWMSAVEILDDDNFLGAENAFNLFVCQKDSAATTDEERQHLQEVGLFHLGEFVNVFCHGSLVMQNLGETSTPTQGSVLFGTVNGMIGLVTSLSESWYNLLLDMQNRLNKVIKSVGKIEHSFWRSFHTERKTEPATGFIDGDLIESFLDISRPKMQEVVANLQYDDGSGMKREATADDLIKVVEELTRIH

Row | SMILES | DC50
1 | Cc1cc(C)c(NC(=O)NCc2ccc3c(c2)C(=O)N(C2CCC(=O)NC2=O)C3)cc1Cl (stereo not shown) [Compound 85] | 274 nM

Same assay, conditions: compound treatment 6 hours, read-out: Code: activity for GSPT1 degradation (DC50)

Row | SMILES | DC50
2 | Cc1c(Cl)cc(NC(=O)NCc2ccc3c(c2)C(=O)N(C2CCC(=O)NC2=O)C3)cc1CN(C)C (stereo not shown) [Compound 75] | 100 to 300 nM
3 | Cc1c(Cl)cc(NC(=O)NCc2ccc3c(c2)C(=O)N(C2CCC(=O)NC2=O)C3)cc1CN1CCOCC1 (stereo not shown) [Compound 82] | ≤ 100 nM
4 | Cc1cc(C)c(NC(=O)NCc2ccc3c(c2)C(=O)N(C2CCC(=O)NC2=O)C3)cc1Cl (stereo not shown) [Compound 85] | 100 to 300 nM
5 | Cc1ccc(NC(=O)NCc2ccc3c(c2)C(=O)N(C2CCC(=O)NC2=O)C3)c(Cl)c1Cl (stereo not shown) [Compound 87] | > 300 nM
6 | O=C1CCC(N2Cc3ccc(CNC(=O)Nc4cccc(CN5CCOCC5)c4)cc3C2=O)C(=O)N1 (stereo not shown) [Compound 105] | > 300 nM
7 | Cc1c(Cl)cc(NC(=O)NCc2ccc3c(c2)C(=O)N(C2CCC(=O)NC2=O)C3)cc1CC1COCOC1 (stereo not shown) [Compound 132] | ≤ 100 nM
